# Measurements: ChEMBL document CHEMBL1201862, “PubChem BioAssay data set” (2004)
#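 Briefly, cells in 96-well plates were exposed to five compound concentrations for 48 h, and endpoints were estimated by linear interpolation. GI50: concentration for 50% inhibition of growth.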 The source made the active and inactive calls. No stated cut-off is given here; in the data, active = GI50 up to about 1.1 µM and inactive = higher.
# Legend:
# Experiment in all cases: DTP human tumour cell line panel, 48 h
# SF-295 = test system: SF-295
# RPMI-8226 = test system: RPMI-8226
# A498 = test system: A498
# SF-268 = test system: SF-268
# BT-549 = test system: BT-549
# MDA-MB-231 = test system: MDA-MB-231
# EKVX = test system: EKVX
# HL-60 = test system: HL-60
# NCI-H460 = test system: NCI-H460
# M14 = test system: M14
# MDA-N = test system: MDA-N
# CCRF-CEM = test system: CCRF-CEM
# HOP-62 = test system: HOP-62
# T47D = test system: T47D
# A549 = test system: A549
# PC-3 = test system: PC-3
# SK-MEL-28 = test system: SK-MEL-28
# RXF 393 = test system: RXF 393
# SK-MEL-5 = test system: SK-MEL-5
SMILES,GI50 (SF-295),GI50 (RPMI-8226),GI50 (A498),GI50 (SF-268),GI50 (BT-549),GI50 (MDA-MB-231),GI50 (EKVX),GI50 (HL-60),GI50 (NCI-H460),GI50 (M14),GI50 (MDA-N),GI50 (CCRF-CEM),GI50 (HOP-62),GI50 (T47D),GI50 (A549),GI50 (PC-3),GI50 (SK-MEL-28),GI50 (RXF 393),GI50 (SK-MEL-5)
CC(=O)/C(=C\I)c1ccccc1,19.1 µM (inactive),2.03 µM (inactive),17.7 µM (inactive),7.91 µM (inactive),1.83 µM (inactive),1.85 µM (inactive),18.6 µM (inactive),1.08 µM (active),11.2 µM (inactive),2.31 µM (inactive),1.62 µM (inactive),1.97 µM (inactive),23.1 µM (inactive),1.69 µM (inactive),15.7 µM (inactive),2.51 µM (inactive),3.18 µM (inactive),1.66 µM (inactive),
O=c1c2ccc(Cl)cc2oc2c(CNc3ccc(S(=O)(=O)Nc4ncccn4)cc3)cccc12,> 100 µM (inactive),> 100 µM (inactive),> 100 µM (inactive),,> 100 µM (inactive),> 100 µM (inactive),> 100 µM (inactive),> 100 µM (inactive),,> 100 µM (inactive),> 100 µM (inactive),> 100 µM (inactive),90.8 µM (inactive),> 100 µM (inactive),> 100 µM (inactive),> 100 µM (inactive),> 100 µM (inactive),,> 100 µM (inactive)
OC1(c2ccccc2)c2ccccc2N=C2NCCN21 (centres undefined),57.5 µM (inactive),11.1 µM (inactive),86.5 µM (inactive),> 100 µM (inactive),> 100 µM (inactive),> 100 µM (inactive),> 100 µM (inactive),44.1 µM (inactive),56.4 µM (inactive),50.6 µM (inactive),35.6 µM (inactive),,> 100 µM (inactive),65.6 µM (inactive),> 100 µM (inactive),52.2 µM (inactive),89.3 µM (inactive),82.6 µM (inactive),37.6 µM (inactive)
CCOn1c(C2(CC3CCN(C(=O)c4ccccc4)CC3)OCCO2)cc2ccccc21,15.8 µM (inactive),8.51 µM (inactive),12.9 µM (inactive),19.3 µM (inactive),19.4 µM (inactive),15.5 µM (inactive),20.8 µM (inactive),,14.1 µM (inactive),16.7 µM (inactive),16.5 µM (inactive),12.6 µM (inactive),15.1 µM (inactive),18.9 µM (inactive),16.9 µM (inactive),12.6 µM (inactive),13.2 µM (inactive),17.4 µM (inactive),11.9 µM (inactive)
O=S(=O)(O)c1ccc(-c2nnc(-c3ccccn3)nc2-c2ccc(S(=O)(=O)O)o2)o1,> 100 µM (inactive),> 100 µM (inactive),> 100 µM (inactive),> 100 µM (inactive),> 100 µM (inactive),> 100 µM (inactive),> 100 µM (inactive),0.329 µM (active),> 100 µM (inactive),> 100 µM (inactive),> 100 µM (inactive),,> 100 µM (inactive),> 100 µM (inactive),> 100 µM (inactive),> 100 µM (inactive),> 100 µM (inactive),> 100 µM (inactive),> 100 µM (inactive)
CCOC(=O)C(C)(C)Oc1ccc(Cl)cc1 [CLOFIBRATE],319 µM (inactive),,297 µM (inactive),650 µM (inactive),> 1000 µM (inactive),> 1000 µM (inactive),201 µM (inactive),> 1000 µM (inactive),632 µM (inactive),> 1000 µM (inactive),566 µM (inactive),596 µM (inactive),> 1000 µM (inactive),202 µM (inactive),432 µM (inactive),359 µM (inactive),489 µM (inactive),160 µM (inactive),147 µM (inactive)
c1ccc(-c2nn(-c3ccccc3)[n+](-c3ccccc3)n2)cc1 [TETRAZOLIUM RED],> 56.1 µM (inactive),,> 74.6 µM (inactive),14.5 µM (inactive),> 50.5 µM (inactive),20 µM (inactive),2.4 µM (inactive),0.184 µM (active),21.1 µM (inactive),10.7 µM (inactive),12.9 µM (inactive),0.718 µM (active),19.5 µM (inactive),> 100 µM (inactive),23.9 µM (inactive),3.83 µM (inactive),19.4 µM (inactive),11.6 µM (inactive),3.49 µM (inactive)
